# Key:
# VERPE [1] = assay: Post-emergence herbicidal action against VERPE; assay type: in vivo, Veronica persica
# Procedure, shortened: (§1)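 A WP or EC formulation diluted in water with 0.2% wetting agent was sprayed at 600 to 800 l/ha onto one-leaf-stage plants grown in sandy loam. About 3 weeks later, action was rated visually in percent, 100% being dead plants.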
# DIGSA [2] = assay: Post-emergence herbicidal action against DIGSA; assay type: in vivo, Digitaria sanguinalis; conditions: 20 g/ha
# Procedure, shortened: as §1
# AMARE [3] = assay: Post-emergence herbicidal action against AMARE; assay type: in vivo, Amaranthus retroflexus; conditions: 20 g/ha, visual assessment about 3 weeks after treatment, 100% = plants have died, 0% = like control plants
# Procedure, shortened: as §1
# SETVI [4] = assay: Post-emergence herbicidal action against SETVI; assay type: in vivo, Setaria viridis
# Procedure, shortened: as §1
# MATIN [5] = assay: Pre-emergence herbicidal action against MATIN; assay type: in vivo, Matricaria inodora
# Procedure, shortened: (§2)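 Greenhouse pots of sandy loam held seeds covered with soil, onto which the compound was applied before emergence. An aqueous suspension or emulsion of WP or EC was used at 600 to 800 l/ha with 0.2% wetting agent. Percent damage was judged visually at 3 weeks.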
# ALOMY [6] = assay: Pre-emergence herbicidal action against ALOMY; assay type: in vivo, Alopecurus myosuroides; conditions: 80 g/ha, pre-emergence, scored visually after 3 weeks vs untreated controls (100% = plants have died, 0% = like control plants)
# Procedure, shortened: as §2
# VIOTR [7] = assay: Post-emergence herbicidal action against VIOTR; assay type: in vivo, Viola tricolor
# Procedure, shortened: as §1
# ECHCG [8] = assay: Pre-emergence herbicidal action against ECHCG; assay type: in vivo, Echinochloa crus-galli; conditions: 80 g/ha
# Procedure, shortened: as §2
# ALOMY [9] = assay: Post-emergence herbicidal action against ALOMY; assay type: in vivo, Alopecurus myosuroides; conditions: visual assessment about 3 weeks after treatment vs untreated controls
# Procedure, shortened: as §1
# POLCO = assay: Pre-emergence herbicidal action against POLCO; assay type: in vivo, Polygonum convolvulus; conditions: dosage 80 g/ha
# Source text: Seeds of monocotyledonous and dicotyledonous weed plants and crop plants are laid out in sandy loam soil in wood-fiber pots and covered with soil. The compounds of the invention, formulated in the form of wettable powders (WP) or as emulsion concentrates (EC), are then applied to the surface of the covering soil in the form of an aqueous suspension or emulsion at a water application rate equivalent to 600 to 800 l/ha, with addition of 0.2% wetting agent. After the treatment, the pots are placed in a greenhouse and kept under good growth conditions for the trial plants. The damage to the test plants is scored visually after a test period of 3 weeks by comparison with untreated controls (herbicidal activity in percent (%): 100% activity=the plants have died, 0% activity=like control plants). […] The tables below illustrate, in an illustrative manner, the post-emergence herbicidal action of the compounds of the invention, the herbicidal activity being stated in percent.
# VERPE [10] = assay: Pre-emergence herbicidal action against VERPE; assay type: in vivo, Veronica persica
# Procedure, shortened: as §2
# PHBPU = assay: Post-emergence herbicidal action against PHBPU; assay type: in vivo, Pharbitis purpurea
# Procedure, shortened: as §1
# ABUTH [11] = assay: Pre-emergence herbicidal action against ABUTH; assay type: in vivo, Abutilon theophrasti
# Procedure, shortened: as §2
# SETVI [12] = assay: Pre-emergence herbicidal action against SETVI; assay type: in vivo, Setaria viridis
# Procedure, shortened: as §2
# VIOTR [13] = assay: Pre-emergence herbicidal action against VIOTR; assay type: in vivo, Viola tricolor
# Procedure, shortened: as §2
# DIGSA [14] = assay: Pre-emergence herbicidal action against DIGSA; assay type: in vivo, Digitaria sanguinalis
# Procedure, shortened: as §2
# ECHCG [15] = assay: Post-emergence herbicidal action against ECHCG; assay type: in vivo, Echinochloa crus-galli
# Procedure, shortened: as §1
# AMARE [16] = assay: Pre-emergence herbicidal action against AMARE; assay type: in vivo, Amaranthus retroflexus
# Procedure, shortened: as §2
# ABUTH [17] = assay: Post-emergence herbicidal action against ABUTH; assay type: in vivo, Abutilon theophrasti; conditions: visual assessment about 3 weeks after treatment vs untreated controls
# Procedure, shortened: as §1
# AVEFA = assay: Pre-emergence herbicidal action against AVEFA; assay type: in vivo, Avena fatua; conditions: Avena fatua, 504 h, pre-emergence
# Procedure, shortened: as §2
# MATIN [18] = assay: Post-emergence herbicidal action against MATIN; assay type: in vivo, Matricaria inodora; conditions: Tripleurospermum inodorum, 504 h
# Procedure, shortened: as §1
# [19] = 80 g/ha, scored visually after 3 weeks vs untreated controls (100% = plants have died, 0% = like control plants)
# [20] = Setaria viridis, 504 h, dosage 20 g/ha
smiles,measurement,setting,value
CCn1nnnc1NC(=O)c1ccc(C(F)F)c(C(=O)NCCOC)c1Cl [Example 2-156],Post-emergence action against VERPE in %,VERPE [1]; 20 g/ha,90%
same,Post-emergence action against DIGSA,DIGSA [2],80%
same,Post-emergence action at 20 g/ha against AMARE in %,AMARE [3],90%
same,Post-emergence action against SETVI in %,SETVI [4]; dosage 20 g/ha,80%
same,Pre-emergence action against MATIN in %,MATIN [5]; dosage 20 g/ha,100%
same,Pre-emergence action against MATIN in %,MATIN [5]; dosage 80 g/ha,100%
same,Pre-emergence action against ALOMY (herbicidal activity),ALOMY [6],100%
same,Post-emergence action against VIOTR in %,VIOTR [7]; 20 g/ha,80%
same,Pre-emergence action against ECHCG in %,ECHCG [8],100%
same,Post-emergence action against ALOMY in %,ALOMY [9]; dosage 20 g/ha,90%
same,Pre-emergence action against POLCO in %,POLCO,90%
same,Pre-emergence action against VERPE in %,VERPE [10]; dosage 20 g/ha,80%
same,Pre-emergence action against VERPE in %,VERPE [10]; dosage 80 g/ha,100%
same,Post-emergence action against PHBPU in %,PHBPU; dosage 20 g/ha,90%
same,Pre-emergence action against ABUTH (herbicidal activity),ABUTH [11]; [19],100%
same,Pre-emergence action against ABUTH (herbicidal activity in percent),"ABUTH [11]; dosage 20 g/ha, scored visually after 3 weeks vs untreated controls, 100% = plants have died, 0% = like control plants",100%
same,Pre-emergence action against SETVI in %,SETVI [12]; dosage 80 g/ha,100%
same,Pre-emergence action against VIOTR in %,VIOTR [13]; dosage 80 g/ha,100%
same,Pre-emergence action against DIGSA in %,DIGSA [14]; dosage 20 g/ha,100%
same,Pre-emergence action against DIGSA in %,DIGSA [14]; dosage 80 g/ha,100%
same,Post-emergence action against ECHCG in %,ECHCG [15]; dosage 5 g/ha,90%
same,Post-emergence action against ECHCG in %,ECHCG [15]; dosage 20 g/ha,90%
same,Pre-emergence action against AMARE in %,"AMARE [16]; 20 g/ha, scored visually after 3 weeks vs untreated controls, 100% = plants have died, 0% = like control plants",100%
same,Pre-emergence action against AMARE in %,AMARE [16]; [19],100%
same,Post-emergence action against ABUTH in %,ABUTH [17]; dosage 20 g/ha,90%
Cc1c(C(=O)Nc2nnnn2C)ccc(C(F)F)c1C(=O)NC(C)C [Example 1-346],pest or weed control at 5 g/ha,"VERPE [1]; Veronica persica, 504 h, 5 g/ha",80%
same,pest or weed control at 20 g/ha,"VERPE [1]; Veronica persica, 504 h, 20 g/ha",80%
same,pest or weed control at 80 g/ha,AVEFA; 80 g/ha,80%
same,pest or weed control at 20 g/ha,"AVEFA; 20 g/ha, scored visually after 3 weeks, 100% = plants have died, 0% = like control plants",80%
same,pest or weed control at 20 g/ha,"AMARE [3]; Amaranthus retroflexus, 504 h",100%
same,pest or weed control at 5 g/ha,"SETVI [4]; Setaria viridis, 504 h, dosage 5 g/ha",100%
same,pest or weed control at 20 g/ha,SETVI [4]; [20],100%
same,pest or weed control at 20 g/ha,"MATIN [5]; Tripleurospermum inodorum, 504 h, dosage 20 g/ha",90%
same,pest or weed control at 80 g/ha,"MATIN [5]; Tripleurospermum inodorum, 504 h, dosage 80 g/ha",100%
same,pest or weed control at 80 g/ha,"ALOMY [6]; Alopecurus myosuroides, 504 h",90%
same,pest or weed control at 5 g/ha,"VIOTR [7]; Viola tricolor, 504 h, 5 g/ha",90%
same,pest or weed control at 20 g/ha,"VIOTR [7]; Viola tricolor, 504 h, 20 g/ha",100%
same,pest or weed control at 5 g/ha,MATIN [18]; dosage 5 g/ha,80%
same,pest or weed control at 20 g/ha,MATIN [18]; dosage 20 g/ha,90%
same,pest or weed control at 80 g/ha,"ECHCG [8]; Echinochloa crus-galli, 504 h",90%
same,pest or weed control at 5 g/ha,"ALOMY [9]; Alopecurus myosuroides, 504 h, dosage 5 g/ha",80%
same,pest or weed control at 20 g/ha,"ALOMY [9]; Alopecurus myosuroides, 504 h, dosage 20 g/ha",90%
same,pest or weed control at 80 g/ha,"POLCO; Fallopia convolvulus, 504 h",80%
same,pest or weed control at 80 g/ha,"VERPE [10]; Veronica persica, 504 h, dosage 80 g/ha",80%
same,pest or weed control at 5 g/ha,"PHBPU; Ipomoea purpurea, 504 h, dosage 5 g/ha",80%
same,pest or weed control at 20 g/ha,"PHBPU; Ipomoea purpurea, 504 h, dosage 20 g/ha",90%
same,pest or weed control at 80 g/ha,"ABUTH [11]; Abutilon theophrasti, 504 h, 80 g/ha, scored visually after 3 weeks vs untreated controls (100% = plants have died, 0% = like control plants)",100%
same,pest or weed control at 20 g/ha,"ABUTH [11]; Abutilon theophrasti, 504 h, dosage 20 g/ha, scored visually after 3 weeks vs untreated controls, 100% = plants have died, 0% = like control plants, read-out: Pre-emergence action against ABUTH (herbicidal activity in percent)",90%
same,pest or weed control at 20 g/ha,SETVI [12]; [20],100%
same,pest or weed control at 80 g/ha,"SETVI [12]; Setaria viridis, 504 h, dosage 80 g/ha",100%
same,pest or weed control at 20 g/ha,"VIOTR [13]; Viola tricolor, 504 h, dosage 20 g/ha",80%
same,pest or weed control at 80 g/ha,"VIOTR [13]; Viola tricolor, 504 h, dosage 80 g/ha",100%
same,pest or weed control at 5 g/ha,"ECHCG [15]; Echinochloa crus-galli, 504 h, dosage 5 g/ha",80%
same,pest or weed control at 20 g/ha,"ECHCG [15]; Echinochloa crus-galli, 504 h, dosage 20 g/ha",90%
same,pest or weed control at 20 g/ha,"AMARE [16]; Amaranthus retroflexus, 504 h, 20 g/ha, scored visually after 3 weeks vs untreated controls, 100% = plants have died, 0% = like control plants",100%
same,pest or weed control at 80 g/ha,"AMARE [16]; Amaranthus retroflexus, 504 h, 80 g/ha, scored visually after 3 weeks vs untreated controls, 100% = plants have died, 0% = like control plants",100%
same,pest or weed control at 5 g/ha,"ABUTH [17]; Abutilon theophrasti, 504 h, dosage 5 g/ha",80%
same,pest or weed control at 20 g/ha,"ABUTH [17]; Abutilon theophrasti, 504 h, dosage 20 g/ha",100%

# From patent US12655116B2, “Substituted isophthalic acid diamides” (Bayer Aktiengesellschaft, priority 2020, dated 2026)
